Laboratory results from US8679526B2, “Antimicrobial peroxidase compositions” (Flen Pharma N.V., priority 2005, dated 2014).
Converted amounts (≈) assume the structure as drawn.

Experiments:
S. aureus = experiment: Antibacterial activity on S. aureus of oxidase/peroxidase with enhancing agents; format: cell-based, Staphylococcus aureus; settings: for antibacterial activity of compositions with enhancing agent, substrate and enzyme: FIG. 2; for enhancing activity on glucose/peroxidase antibacterial activity: present experimental setting; for Enhancing effect on oxidase/peroxidase assay: antimicrobial effect; for bactericidal capacity when mixed with the enzyme-substrate solution / effect on cell survival of the separate systems: FIG. 1; for bactericidal capacity when mixed with the enzyme-substrate solution: enhancing agent and ES; for effect on cell survival of the separate systems: enhancing agent only
Experimental: Bacterial cells (S. aureus) were plated on Trypticase Soybean Agar plates (Becton Dickinson) and incubated overnight at 37° C. Cells were recovered from plates and mixed with NaCl-peptone broth buffer (Merck). The amount of medium is adjusted to give a bacterial suspension with a cell density of OD600=0.25 for bacteria.
For the examples described in the following examples, a fresh dilution of 0.25% (v/v) enzyme-substrate (Biovert™) stock solutions were prepared for each independent test. The Biovert™ enzyme stock solution contains 1527 U/ml lactoperoxidase; 2016 U/ml glucose oxidase; the Biovert™ substrate stock solution comprises: 55% (w/v) glucose, 0.51% (w/v) KSCN, 0.73% (w/v) KI.
In order to assess the synergistic action of the enhancing agent on the enzyme-substrate enhancing agent, the concentration of enzyme-substrate was adjusted to obtain conditions wherein the oxidase/peroxidase in a hydrogel performs limited but measurable antibacterial activity. The above mentioned (0.25% (v/v)) solution has accordingly been further diluted to 0.017% (v/v).
(§1) A 0.33% (w/v) Na-alginaat (Kelset), 0.66% (v/v) PEG400 gel solution was prepared in water, autoclaved and subsequently cooled to room temperature.
(§2) For the antibacterial assay the following components are mixed: 100 μl of bacterial cell suspension, 100 μl enzyme-substrate master solution (0.25%), 1 g (=1 ml) gel solution, 0.1-1 mg enhancing agent, 300 μl milliQ water. Final concentrations of the enzyme/substrate in the reaction mixture are 0.015 U/ml glucose oxidase, 0.011 U/ml lactoperoxidase, 0.00007% (w/v) potassium thiocyanate, 0.0001% (w/v) potassium iodide, 0.0076% glucose, and 0.066-0.66 mg/ml enhancing agent.

[1] = cited from earlier work
[2] = DPPH-radical bleaching assay; settings: for Antioxidant properties: DPPH assay: 5 mMole/liter in 1-octanol; for potency as reducer / antioxidant efficiency: FIG. 4
Experimental: DPPH (1,1-DiPhenyl-2-PicrylHydrazyl) is a cell-permeable, stable free radical that acts as a hydrogen radical scavenger, and is used as a screening tool for detecting free radical scavenging activity of antioxidants. When a radical solution is brought into contact with an antioxidant, the radical-molecule is reduced and thereby looses its characteristic purple colour. This “bleaching” can be monitored by spectrophotometric analysis.
A DPPH-radical solution (15 mg/ml) was prepared freshly in 1-octanol (Sigma) and 900 μl aliquots were transferred to 2 ml spectrophotometer cuvettes. 100 μl of 50 mMole/liter solutions of enhancing agents (dissolved in 1-octanol) were added to the solution (final concentration of the enhancing agents is 5 mMole/liter). Spectrophotometric analysis of the samples was carried out within 5 minutes, in order to prevent quenching caused by free (e.g. air born) radicals.

Beta-carotene assay = settings: for Antioxidant properties: Beta-carotene assay: 5 mMole/liter in 1-octanol; for antioxidant performance in the beta carotene bleaching assay: FIG. 3
Experimental: In this assay, the antioxidant activity of a component is assessed by its ability to prevent bleaching of a beta-carotene solution by radicals formed upon illumination.
A beta-carotene solution (20 mg/ml) was prepared freshly in 1-octanol (Sigma) and 900 μl aliquots were transferred to 2 ml spectrophotometer cuvettes. 100 μl of 50 mMole/liter solutions of enhancing agents of the invention (dissolved in 1-octanol) were added to the solution (final concentration of the enhancing agents is 5 mMole/liter). The solutions were illuminated for up to 5 hours and spectrophotometric analysis was carried out at indicated time points.

[3] = system: HaCat keratinocytes cells; experiment: Cell toxicity (MTT) of oxidase/peroxidase alginate gel with guaiacol; format: cell-based; settings: 200 μM guaiacol in gel, diluted 1 g in 9 ml, 24 hours; p=0.31
Experimental: (§3) HaCat keratinocytes cells and mouse 3T3 fibroblast cells were grown in the following growth medium: DMEM medium (high glucose; Sigma) supplemented with heat inactivated calf serum (10%) (Life Technologies), L-glutamine (4 mM) (Sigma) and Streptomycin/Penicillin (100 U) (Sigma). […] As a control an identical gel without guaiacol was prepared. One gram of the alginate gel was dissolved in 9 ml growth medium (diluted alginate gel). Cells were seeded at subconfluency. After overnight incubation at 37° C., 5% CO2, growth medium was replaced by diluted alginate gel and the cells were incubated at 37° C., 5% CO2 for another 24 hours. […] Cells were incubated in this MTT-medium for an additional 3 h. Cell viability and metabolism was assayed by determining the chromophoric conversion product of MMT at 570 nm.

[4] = system: mouse 3T3 fibroblast cells; experiment: as above; format: cell-based; settings: 200 μM guaiacol in gel, diluted 1 g in 9 ml, 24 hours; p=0.32
Experimental: as §3

[5] = system: MRSA (methicillin resistant S. aureus) bacteria; experiment: Antibacterial activity on MRSA of oxidase/peroxidase with enhancing agents; format: cell-based, Staphylococcus aureus; settings: for enhancing effect on the peroxidase/oxidase activity / antibacterial effect of compound alone: FIG. 5; for enhancing effect on the peroxidase/oxidase activity: ES + enhancing agent; for antibacterial effect of compound alone: enhancing agent alone
Experimental: The effect of vanillin and guaiacol on the peroxidase/oxidase activity was assayed on MRSA (methicillin resistant S. aureus) bacteria using growth conditions and assay conditions as described in example 1.

Candida albicans = experiment: Growth retardation of Candida albicans in SD broth with enzyme/substrate system; format: cell-based; settings: FIG. 9; 0.02% dilution of enzyme/substrate
Experimental: A yeast cell culture (A600=0.05) was grown in Sabouraud Dextrose (SD) broth (Difco™, Becton Dickinson) in the presence of a 0.02% dilution (suboptimal concentration) of the enzyme/substrate system described in example 1.

[6] = system: MRSA (Methicillin-Resistant Staphylococcus aureus); experiment: Growth retardation of MRSA in TS broth with enzyme/substrate system; format: cell-based; settings: FIG. 8; 0.08% dilution of enzyme/substrate
Experimental: A bacterial cell culture (A600=0.02) was grown in Tryptic Soy (TS) broth (Difco™, Becton Dickinson) in the presence of a 0.08% dilution (suboptimal concentration) of the enzyme/substrate system described in example 1. […] (see FIG. 8). It is observed that this effect is maintained for a significant time period.

E. coli = experiment: Antibacterial activity on E. coli of enhancing agents and oxidase/peroxidase; format: cell-based, Escherichia coli; settings: FIG. 7; 6 hours of incubation
Experimental: Experiments using the conditions described in Example 1 and 2 were performed with Gram-negative bacteria (E. coli).

[7] = Dispersion or dissolution in the hydrophilic gel setting; format: physicochemical; settings: present experimental setting, hydrogel
Experimental: as §1, §2

| Molecule | Solubility in water [1] | Antioxidant properties: DPPH assay [2] | Enhancing effect on oxidase/peroxidase assay (S. aureus) | Antioxidant properties: Beta-carotene assay (Beta-carotene assay) | other results |
| --- | --- | --- | --- | --- | --- |
| O=Cc1ccc(O)c(O)c1 [3,4 dihydroxybenzaldehyde, reference compound] |  |  |  |  | antibacterial activity of compositions with enhancing agent, substrate and enzyme (S. aureus): less pronounced |
| N[C@@H](Cc1c[nH]c2ccc(O)cc12)C(=O)O [5-hydroxy-tryptophane, reference compound] |  |  |  |  | enhancing activity on glucose/peroxidase antibacterial activity (S. aureus): did not show an enhancing activity |
| COc1cc(C(C)=O)ccc1O [Apocynin, 1-(4-hydroxy-3-methoxy-phenyl)ethanone] | 500 µg/mL (≈ 3.01 mM) |  |  |  |  |
| Cc1cc(C(C)(C)C)c(O)c(C(C)(C)C)c1 [BHT, di-tert-butylated hydroxytoluene, reference compound] |  | ++ | + | +++ | potency as reducer / antioxidant efficiency [2]: less potent reducers than gallic acid and propyl gallate |
| CCOc1cc(C=O)ccc1O [Ethylvanillin, 3-ethoxy-4-hydroxy-benzaldehyde] |  |  | + |  | bactericidal capacity when mixed with the enzyme-substrate solution (S. aureus): markedly enhanced the bactericidal capacity; effect on cell survival of the separate systems (S. aureus): only moderately affected cell survival |
| O=C(O)c1cc(O)c(O)c(O)c1 [Gallic acid, reference compound] |  | +++ | + | +++ | antibacterial activity of compositions with enhancing agent, substrate and enzyme (S. aureus): less pronounced |
| COc1ccccc1O [Guaiacol, 2-methoxyphenol] |  | +++ | + | ++ | metabolic activity of cells (MTT), alginate hydrogel with versus without guaiacol [3]: no statistical difference; metabolic activity of cells (MTT), alginate hydrogel with versus without guaiacol [4]: no statistical difference; enhancing effect on the peroxidase/oxidase activity [5]: enhancing effect; antibacterial effect of compound alone [5]: limited effect; enhancing effect on peroxidase/oxidase activity ([5]; FIG. 6, different concentrations of guaiacol): significant enhancing effect; suppression of fungal growth on addition to enzyme/substrate system (Candida albicans): additional suppression of the fungal growth; potency as reducer / antioxidant efficiency [2]: nearly as efficient as gallic acid and propyl gallate; suppression of bacterial growth on addition to enzyme/substrate system [6]: additional suppression of the bacterial growth; bactericidal capacity when mixed with the enzyme-substrate solution (S. aureus): markedly enhanced the bactericidal capacity; effect on cell survival of the separate systems (S. aureus): only moderately affected cell survival; antibacterial effectiveness in combination with the enzyme-substrate (E. coli): more effective than enzyme-substrate alone; antioxidant performance in the beta carotene bleaching assay (Beta-carotene assay): very effective |
| CCOc1ccccc1O [Guaiethol, 2-ethoxyphenol] | 3100 µg/mL (≈ 22.4 mM) | +++ | + | ++ | potency as reducer / antioxidant efficiency [2]: nearly as efficient as gallic acid and propyl gallate; antioxidant performance in the beta carotene bleaching assay (Beta-carotene assay): very effective |
| COc1ccc(C=O)cc1O [Isovanilline, 3-hydroxy-4-methoxy-benzaldehyde] | 11000 µg/mL (≈ 72.3 mM) | − | − | ± | antibacterial activity of compositions with enhancing agent, substrate and enzyme (S. aureus): less pronounced |
| COc1cc(O)ccc1O [Methoxyhydroquinone, 2-methoxybenzene-1,4-diol] | 33000 µg/mL (≈ 235 mM) |  |  |  |  |
| CCCOC(=O)c1cc(O)c(O)c(O)c1 [Propylgallate, propyl gallate, reference compound] |  | +++ | ± | +++ | antibacterial activity of compositions with enhancing agent, substrate and enzyme (S. aureus): less pronounced |
| CCOc1cc(C=O)ccc1O [Quantrovanil, 3-ethoxy-4-hydroxy-benzaldehyde] | 280 µg/mL (≈ 1.68 mM) |  |  |  |  |
| COc1cc(C(=O)O)ccc1O [Vanillic acid, 4-hydroxy-3-methoxy-benzoic acid] |  |  | + | ± |  |
| COc1cc(C=O)ccc1O [Vanillin, 4-hydroxy-3-methoxy-benzaldehyde] |  | − | + | − | enhancing effect on the peroxidase/oxidase activity [5]: enhancing effect; antibacterial effect of compound alone [5]: limited effect; suppression of fungal growth on addition to enzyme/substrate system (Candida albicans): additional suppression of the fungal growth; potency as reducer / antioxidant efficiency [2]: performed poorly; bactericidal capacity when mixed with the enzyme-substrate solution (S. aureus): markedly enhanced the bactericidal capacity; effect on cell survival of the separate systems (S. aureus): only moderately affected cell survival; antibacterial effectiveness in combination with the enzyme-substrate (E. coli): more effective than enzyme-substrate alone; antioxidant performance in the beta carotene bleaching assay (Beta-carotene assay): performed poorly |
| COc1cccc(O)c1 [m-Guaiacol, 3-methoxyphenol] | 500 µg/mL (≈ 4.03 mM) |  |  |  |  |
| COc1cccc(C=O)c1O [o-vanillin, 2-hydroxy-3-methoxy-benzaldehyde] | 500 µg/mL (≈ 3.29 mM) |  |  |  |  |
| COc1cc(C=O)cc(OC)c1O [syringaldehyde] |  |  |  |  | dispersion or dissolution in hydrophilic media [7]: could not be properly dispersed or dissolved |
| N[C@@H](Cc1ccc(O)cc1)C(=O)O [tyrosine, reference compound] |  |  |  |  | enhancing activity on glucose/peroxidase antibacterial activity (S. aureus): did not show an enhancing activity |
| Vitamin E [reference compound] |  | + | − | + | potency as reducer / antioxidant efficiency [2]: less potent reducers than gallic acid and propyl gallate |
